Results published in PMC10280969, “A green leaf volatile, (Z)-3-hexenyl-acetate, mediates differential oviposition by Spodoptera frugiperda on maize and rice” (BMC Biology, 2023).

Key:
Assay in all cases: two-electrode voltage clamp, Xenopus oocytes
Assay type in all cases: cell-based
Conditions in all cases: 10^-4 M odorant; Ca2+-free Ringer buffer pH 7.6; agonist
SfruOR23/ORco = target: T1, SfruOR23/ORco (Spodoptera frugiperda, UniProt A0A9R0EA99)
T1 construct: gene LOC118268273; full-length ORF, pT7TS cRNA, Xenopus laevis oocytes, with ORco; with Odorant receptor coreceptor
T1 sequence (A0A9R0EA99 1-429): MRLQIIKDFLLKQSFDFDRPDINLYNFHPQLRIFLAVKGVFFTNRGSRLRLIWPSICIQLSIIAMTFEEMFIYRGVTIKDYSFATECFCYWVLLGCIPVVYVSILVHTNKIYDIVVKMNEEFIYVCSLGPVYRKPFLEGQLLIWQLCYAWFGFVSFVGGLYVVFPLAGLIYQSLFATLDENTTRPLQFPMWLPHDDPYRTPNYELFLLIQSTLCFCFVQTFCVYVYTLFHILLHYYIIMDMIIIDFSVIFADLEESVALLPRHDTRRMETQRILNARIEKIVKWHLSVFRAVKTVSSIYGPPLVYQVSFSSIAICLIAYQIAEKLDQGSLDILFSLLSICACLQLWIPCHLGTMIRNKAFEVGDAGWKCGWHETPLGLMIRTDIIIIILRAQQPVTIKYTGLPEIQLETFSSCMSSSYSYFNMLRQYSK
T1 sequence (A0A9F1UC78 1-473 partner): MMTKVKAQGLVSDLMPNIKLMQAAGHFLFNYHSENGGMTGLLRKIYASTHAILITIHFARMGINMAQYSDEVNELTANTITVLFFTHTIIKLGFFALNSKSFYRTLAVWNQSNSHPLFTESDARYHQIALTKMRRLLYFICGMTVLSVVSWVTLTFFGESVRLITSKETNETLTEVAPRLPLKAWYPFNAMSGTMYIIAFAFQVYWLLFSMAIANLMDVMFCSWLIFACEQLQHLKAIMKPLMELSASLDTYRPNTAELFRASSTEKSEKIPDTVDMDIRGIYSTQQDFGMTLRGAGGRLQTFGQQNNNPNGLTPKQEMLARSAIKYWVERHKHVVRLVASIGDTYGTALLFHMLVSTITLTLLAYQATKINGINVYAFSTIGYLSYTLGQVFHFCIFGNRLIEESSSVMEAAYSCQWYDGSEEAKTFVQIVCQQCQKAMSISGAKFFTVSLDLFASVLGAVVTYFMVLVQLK

SfruOR9 = target: T2, SfruOR9 (Spodoptera frugiperda, UniProt A0A9R0EEX7)
T2 construct: gene LOC118261888; full-length ORF, pT7TS cRNA, Xenopus laevis oocytes; with Odorant receptor coreceptor
T2 sequence (A0A9R0EEX7 1-400): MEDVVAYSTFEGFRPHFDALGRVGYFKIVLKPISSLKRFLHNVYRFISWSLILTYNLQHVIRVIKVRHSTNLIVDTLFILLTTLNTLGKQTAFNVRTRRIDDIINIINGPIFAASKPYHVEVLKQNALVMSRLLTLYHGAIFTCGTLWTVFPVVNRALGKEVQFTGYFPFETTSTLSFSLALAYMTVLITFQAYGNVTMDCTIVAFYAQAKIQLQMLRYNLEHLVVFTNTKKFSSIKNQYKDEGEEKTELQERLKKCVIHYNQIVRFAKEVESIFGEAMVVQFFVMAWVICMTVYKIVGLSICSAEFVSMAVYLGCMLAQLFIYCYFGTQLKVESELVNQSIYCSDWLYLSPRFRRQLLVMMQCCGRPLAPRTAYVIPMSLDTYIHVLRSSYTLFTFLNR
T2 sequence (A0A9F1UC78 1-473 partner): T1 sequence (A0A9F1UC78 1-473 partner)

SfruOR5 = target: T3, SfruOR5 (Spodoptera frugiperda, UniProt A0A9R0ELQ8)
T3 construct: gene LOC118270580; full-length ORF, pT7TS cRNA, Xenopus laevis oocytes; with Odorant receptor coreceptor
T3 sequence (A0A9R0ELQ8 1-379): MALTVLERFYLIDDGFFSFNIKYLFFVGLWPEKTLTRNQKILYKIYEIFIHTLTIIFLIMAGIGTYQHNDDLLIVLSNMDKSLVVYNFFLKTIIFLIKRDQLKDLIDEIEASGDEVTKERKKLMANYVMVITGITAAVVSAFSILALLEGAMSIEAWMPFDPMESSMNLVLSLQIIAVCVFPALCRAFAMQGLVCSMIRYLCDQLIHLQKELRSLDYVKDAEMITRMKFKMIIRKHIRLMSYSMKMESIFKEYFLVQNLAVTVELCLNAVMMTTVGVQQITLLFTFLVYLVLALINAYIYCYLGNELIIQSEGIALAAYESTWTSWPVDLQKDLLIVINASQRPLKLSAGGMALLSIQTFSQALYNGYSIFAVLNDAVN
T3 sequence (A0A9F1UC78 1-473 partner): T1 sequence (A0A9F1UC78 1-473 partner)

SfruOR17 = target: T4, SfruOR17 (Spodoptera frugiperda, UniProt A0A9R0D2T2)
T4 construct: gene LOC118267896; full-length ORF, pT7TS cRNA, Xenopus laevis oocytes; with Odorant receptor coreceptor
T4 sequence (A0A9R0D2T2 1-395): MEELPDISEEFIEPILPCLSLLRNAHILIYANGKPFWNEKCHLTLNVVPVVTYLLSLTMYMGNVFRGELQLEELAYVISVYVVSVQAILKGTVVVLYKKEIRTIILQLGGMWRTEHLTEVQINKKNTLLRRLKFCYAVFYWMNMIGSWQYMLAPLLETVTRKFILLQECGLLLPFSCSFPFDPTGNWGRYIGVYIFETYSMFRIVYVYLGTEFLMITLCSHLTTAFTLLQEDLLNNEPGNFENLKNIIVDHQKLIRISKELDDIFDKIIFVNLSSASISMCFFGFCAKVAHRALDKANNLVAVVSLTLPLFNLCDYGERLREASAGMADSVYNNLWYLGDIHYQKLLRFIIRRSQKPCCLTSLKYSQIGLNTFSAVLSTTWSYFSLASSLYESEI
T4 sequence (A0A9F1UC78 1-473 partner): T1 sequence (A0A9F1UC78 1-473 partner)

**Q.** For `CC/C=C\CCOC(C)=O` [(Z)-3-hexenyl-acetate], which inward current response (SfruOR23/ORco) is on record?
**A.** The inward current response was “with SfruOR23/ORco showing the highest response”.

**Q.** And the inward current response (SfruOR9)?
**A.** Its inward current response is “SfruOR5, SfruOR9, SfruOR17, SfruOR23, and SfruOR25 responded to the oviposition stimulant (Z)-3-hexenyl-acetate”.

**Q.** What about the inward current response (SfruOR5) of the same compound?
**A.** Its inward current response is “SfruOR5, SfruOR9, SfruOR17, SfruOR23, and SfruOR25 responded to the oviposition stimulant (Z)-3-hexenyl-acetate”.

**Q.** What about the inward current response (SfruOR17) of the same compound?
**A.** Its inward current response is “SfruOR5, SfruOR9, SfruOR17, SfruOR23, and SfruOR25 responded to the oviposition stimulant (Z)-3-hexenyl-acetate”.
